What was measured:
[1] = target: T1, hGAT2 (Homo sapiens, UniProt Q9NSD5); assay: hGAT2 competition uptake assay with 3H-GABA in HEK-TREx-hGAT2 cells; format: cell-based
T1 construct: expressed in transfected cells; host or cells: HEK-TREx cells (HEK-TREx-GAT2 inducible cell line)
T1 sequence (Q9NSD5 1-602): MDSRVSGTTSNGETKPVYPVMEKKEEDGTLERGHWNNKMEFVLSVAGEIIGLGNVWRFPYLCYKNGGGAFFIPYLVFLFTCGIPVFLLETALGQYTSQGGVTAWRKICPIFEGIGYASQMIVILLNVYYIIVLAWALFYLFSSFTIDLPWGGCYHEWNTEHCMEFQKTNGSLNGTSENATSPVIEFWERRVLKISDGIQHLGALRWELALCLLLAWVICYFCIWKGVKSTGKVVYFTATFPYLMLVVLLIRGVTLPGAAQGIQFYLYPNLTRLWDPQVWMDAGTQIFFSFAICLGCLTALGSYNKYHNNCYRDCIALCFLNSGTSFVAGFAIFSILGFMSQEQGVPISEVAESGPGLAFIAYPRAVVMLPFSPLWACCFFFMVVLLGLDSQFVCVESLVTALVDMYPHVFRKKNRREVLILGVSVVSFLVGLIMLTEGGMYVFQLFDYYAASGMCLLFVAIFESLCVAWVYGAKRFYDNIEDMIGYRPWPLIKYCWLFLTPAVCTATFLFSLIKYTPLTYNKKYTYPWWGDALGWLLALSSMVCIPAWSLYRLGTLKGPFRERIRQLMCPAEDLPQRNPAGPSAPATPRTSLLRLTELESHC
Procedure: A modified competition uptake assay can be developed to determine the ability of a test compound(s) to inhibit the uptake of radiolabeled substrates into HEK-TREx-hGAT2 cells induced to over-express hGAT2. The results can be stated as affinities (IC50).
The competition uptake assay is prepared as follows: Compounds are prepared for assay by diluting a 100 mM stock concentration (in DMSO) to the appropriate working concentration. Typically, seven-point dose response curves are prepared starting at a final assay concentration of 1 mM and carrying out three-fold dilutions. […]
Scintillation fluid (200 μl) (Optiphase Supermix (Perkin Elmer) is added to each well, and the plate is covered with a 96-well adhesive plate cover and placed on a shaker for 10 minutes. The plates are counted on a 96-well plate scintillation counter for 60 sec/well. The data are analyzed using a sigmoidal dose response curve-fitting program (Prism, GraphPad, Inc, San Diego, Calif.; equation: one-site competition).
FIG. 2 depicts the results of a competition experiment using HEK-TREx-GAT2 cells. ^3H-GABA was used as the substrate and unlabeled GABA was used as the competitor. […] Non-specific uptake was determined by measuring the uptake into cells not induced to express the transporter (“no tet”). […]

[2] = target: T2, PgP (Homo sapiens, UniProt P08183); assay: Transwell monolayer efflux assay in MDCK cells with TREx-PgP; format: cell-based; conditions: 2.5 nM 3H-vinblastine, 250 μM verapamil
T2 construct: expressed in transfected cells; host or cells: MDCK cells
T2 sequence (P08183 whole entry): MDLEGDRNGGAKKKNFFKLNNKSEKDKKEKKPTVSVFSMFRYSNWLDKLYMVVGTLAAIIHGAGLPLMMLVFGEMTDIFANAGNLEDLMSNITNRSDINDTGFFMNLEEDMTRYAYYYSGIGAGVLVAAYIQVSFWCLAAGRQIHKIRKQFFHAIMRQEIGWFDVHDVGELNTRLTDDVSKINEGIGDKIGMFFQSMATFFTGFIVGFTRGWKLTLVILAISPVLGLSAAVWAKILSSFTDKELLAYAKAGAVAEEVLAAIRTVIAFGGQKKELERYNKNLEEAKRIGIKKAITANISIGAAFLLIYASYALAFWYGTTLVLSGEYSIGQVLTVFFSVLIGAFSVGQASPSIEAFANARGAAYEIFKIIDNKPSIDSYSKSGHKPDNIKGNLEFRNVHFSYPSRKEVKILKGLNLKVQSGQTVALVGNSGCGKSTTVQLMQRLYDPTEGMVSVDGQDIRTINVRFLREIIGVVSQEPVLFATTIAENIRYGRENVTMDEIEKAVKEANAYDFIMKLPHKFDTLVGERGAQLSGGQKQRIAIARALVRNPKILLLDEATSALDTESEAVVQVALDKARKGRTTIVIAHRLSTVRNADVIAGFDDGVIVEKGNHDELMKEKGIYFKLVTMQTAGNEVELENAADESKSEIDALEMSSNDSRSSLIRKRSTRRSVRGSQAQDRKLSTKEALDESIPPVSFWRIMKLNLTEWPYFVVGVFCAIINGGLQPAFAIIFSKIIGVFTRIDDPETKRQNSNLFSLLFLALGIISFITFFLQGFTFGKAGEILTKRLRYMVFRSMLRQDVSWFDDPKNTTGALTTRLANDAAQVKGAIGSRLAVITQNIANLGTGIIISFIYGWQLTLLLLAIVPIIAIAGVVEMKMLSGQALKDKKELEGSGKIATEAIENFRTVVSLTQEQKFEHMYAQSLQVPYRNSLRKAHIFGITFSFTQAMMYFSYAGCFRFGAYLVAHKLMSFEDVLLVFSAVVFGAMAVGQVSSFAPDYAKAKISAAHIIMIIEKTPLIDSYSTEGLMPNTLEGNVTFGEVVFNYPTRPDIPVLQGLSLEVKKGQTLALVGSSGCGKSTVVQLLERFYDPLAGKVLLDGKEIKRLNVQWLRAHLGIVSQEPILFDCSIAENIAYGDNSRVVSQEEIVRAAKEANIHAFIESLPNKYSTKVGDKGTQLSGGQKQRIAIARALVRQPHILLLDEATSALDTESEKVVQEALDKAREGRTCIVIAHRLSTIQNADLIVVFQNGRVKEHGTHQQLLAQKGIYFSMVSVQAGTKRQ
Procedure: Transwell monolayer efflux assays can be performed by transfecting MDCK cells with the tetracycline-inducible TREx-PgP expression vector. The cells optionally can be transfected with a nucleic acid encoding the transporter of interest. The transfected cells are seeded on polycarbonate filter membranes in transwell dishes and grown for 3-5 days, yielding a polarized monolayer with tight junctions between cells.

| uptake of labeled GABA as concentration of unlabeled GABA increased ([1]; HEK-TREx-GAT2 cells induced to express GAT2, FIG. 2) | IC50 ([1]; HEK-TREx-GAT2 cells induced to express hGAT2, 3H-GABA as substrate) | Apical to basolateral transport in the presence of verapamil [2] | Basolateral to apical transport in the presence of verapamil [2] | SMILES |
| --- | --- | --- | --- | --- |
| decreased | 13 µM | – | – | NCCCC(=O)O [GABA, gamma-aminobutyric acid] |
| – | – | strongly increased | strongly decreased | CC[C@]1(O)C[C@@H]2CN(CCc3c([nH]c4ccccc34)[C@@](C(=O)OC)(c3cc4c(cc3OC)N(C)[C@H]3[C@@](O)(C(=O)OC)[C@H](OC(C)=O)[C@]5(CC)C=CCN6CC[C@]43[C@@H]65)C2)C1 [^3H-vinblastine, vinblastine] |
